Measured values from patent publication US20230114405A1, “Microemulsion Delivery Systems for A Female Hormone Blend with Alcohol-Soluble Species Including Nonderivatized Hormones” (Quicksilver Scientific, Inc., priority 2019, published 2023).

How the values were obtained:
[1] = Solubility of DHEA in ethanol and MCT oil; assay type: physicochemical
Source text: An alcohol-soluble species is a species that is insoluble in water and has a greater solubility in ethanol than in medium chain triglyceride (MCT) oils. […] Alcohol-soluble species are preferably pharmacologically active, more preferably are a drug or a supplement, and neither include nor are water. Thus, liquids and solids may exist that technically are soluble in alcohol, but because they also are soluble in water or more or equivalently soluble in MCT oils than in ethanol are not “alcohol-soluble species”.
Solubilized means that the alcohol-soluble species to be delivered is in the solution of the droplet. […] Thus, if either average particle diameters greater than 200 nm or precipitated crystals visible to the naked eye form, the alcohol-soluble species is not solubilized in the solution of the droplet. If an alcohol-soluble species is not solubilized in the solution, it is insoluble in the solution. In many respects, solubility may be thought of as a concentration dependent continuum. For example, the following descriptive terms may be used to express solubility of a solute in a solvent (grams solid/mL of solvent) at 25 degrees Celsius: […]

[2] = Formation of visually clear, shelf-stable MOIW microemulsions with phospholipid and polyethylene glycol derivative; assay type: physicochemical; settings: used in conjunction with the phospholipid
Source text: A shelf-stable microemulsion may be determined in one of two ways. […] Either type of dissociation means that the microemulsion is not shelf-stable.
A visually clear microemulsion has an average particle diameter of 200 nm and less and lacks precipitated solid crystals visible to the naked eye.

Compound	descriptive solubility level in MCT oil ([1]; MCT oil)	solubility in MCT oil ([1]; MCT oil)	descriptive solubility level in ethanol ([1]; ethanol)	solubility in ethanol ([1]; ethanol)	phospholipid to polyethylene glycol derivative ratios resulting in visually clear, shelf-stable microemulsions [2]
C[C@]12CC[C@H](O)CC1=CC[C@@H]1[C@@H]2CC[C@]2(C)C(=O)CC[C@@H]12 [DHEA, dehydroepiandrosterone (3-beta-hydroxyandrosteron-5-en-17-one)]	sparingly soluble	approximately 10 mg/mL	freely soluble	approximately 150 mg/mL	–
polysorbate 20	–	–	–	–	did not form visually clear, shelf-stable microemulsions
